Assay results reported in article PMC5719405, “Sex-related pharmacokinetic differences and mechanisms of metapristone (RU486 metabolite)” (Scientific Reports, 2017).

Key:
cancer cells = conditions: cited from earlier work
[1] = Tissue distribution study with metapristone; assay type: in vivo, SD rats; conditions: female rats, 45 mg/kg single oral dose
Procedure: Sixteen SD rats (four females/group) were dosed by gavage with 45 mg/kg of metapristone to carry out tissue distribution study, as we previously described. Rats were sacrificed at 6 h and 24 h after dosing in order to collect blood, heart, liver, spleen, lung, kidney, brain, intestine and ovary for quantitative analysis of metapristone concentrations. Tissue samples were immediately washed in normal saline to remove the blood or content, and blotted dry with filter paper. Tissue samples (0.2 g) were individually homogenized with normal saline (0.8 mL). Tissue homogenates (100 µL) were processed as the plasma samples. The detailed method validation for analysis of metapristone in plasma, tissue homogenates, and liver microsomal samples is provided in the Supplementary materials.

For CC#C[C@]1(O)CC[C@H]2[C@@H]3CCC4=CC(=O)CCC4=C3[C@@H](c3ccc(NC)cc3)C[C@@]21C [metapristone, N-monodemethyl mifepristone], the “effect on cancer cells” value (cancer cells) is given as “cytostatic effect”, the concentration at 6 h ([1]; Sprague-Dawley, rat, liver, 6 h) is given as 222000 ± 23000 ng/g and the “metapristone in rat brain” value [1] is given as “detected”.
